Values after ≈ are worked out from the molar mass of the structure shown.
Key:
B. cereus = assay: standard disc plate assay, 12.5 mm paper discs (zone of inhibition), B. cereus; type: cell-based, Bacillus cereus; conditions: conclusion in words from the above results
Source text: (§1) The novel intermediates, disclosed herein, are useful to make novel aminoglycoside antibiotics. These novel aminoglycoside antibiotics are antibacterially active, and, thus, they can be used in various environments to eradicate or control sensitive bacteria. Following are in vitro antibacterial test results for representative compounds of the subject invention. The results were obtained with a standard disc plate assay using 12.5 mm paper discs.

B. subtilis = assay: standard disc plate assay, 12.5 mm paper discs (zone of inhibition), B. subtilis; type: cell-based, Bacillus subtilis; conditions: conclusion in words from the above results
Source text: as §1

S. aureus UC 76 [1] = assay: standard microplate test in BHI Agar (MIC), S. aureus UC 76; type: cell-based, Staphylococcus aureus
Protocol: (§2) Compounds were also tested in a standard microplate test in Brain Heart Infusion (BHI) Agar, at a concentration of 1 mg/ml. Incubation is at 37° and end points are read at 20 hours. Brain Heart Infusion Agar (supplied by Difco Laboratories, Detroit, Michigan, U.S.A.) has the following composition:
(§3) Compounds (7β), (7α) and (9) were tested again along with compounds (11) and (14β) against a neamine control using the same conditions as given above.

S. hemolyticus UC 152 = assay: standard microplate test in BHI Agar (MIC), S. hemolyticus UC 152; type: cell-based, Streptococcus hemolyticus; conditions: Streptococcus pyogenes, UC152, 20 h; S. hemolyticus UC 152; retest table, group (7β), (14β), neamine control; read-out: Minimum Inhibitory Concentration
Protocol: as §2, §3

St. faecalis UC 694 = assay: standard microplate test in BHI Agar (MIC), St. faecalis UC 694; type: cell-based; conditions: Enterococcus faecalis, UC694, 20 h, S. faecalis UC 694; retest table, group (7β), (14β), neamine control; read-out: Minimum Inhibitory Concentration
Protocol: as §2, §3

E. coli UC 45 = assay: standard microplate test in BHI Agar (MIC), E. coli UC 45; type: cell-based; conditions: Escherichia coli, UC45, 20 h, E. coli UC 45; retest table, group (7β), (14β), neamine control; read-out: Minimum Inhibitory Concentration
Protocol: as §2, §3

P. vulgaris UC 93 [2] = assay: standard microplate test in BHI Agar (MIC), P. vulgaris UC 93; type: cell-based; conditions: Proteus vulgaris, UC93, 20 h, P. vulgaris UC 93; retest table, group (7β), (14β), neamine control; read-out: Minimum Inhibitory Concentration
Protocol: as §2, §3

K. pneumoniae UC 58 = assay: standard microplate test in BHI Agar (MIC), K. pneumoniae UC 58; type: cell-based; conditions: Klebsiella pneumoniae, UC58, 20 h; K. pneumoniae UC 58; retest table, group (7β), (14β), neamine control; read-out: Minimum Inhibitory Concentration
Protocol: as §2, §3

Ps. aeruginosa UC 95 [3] = assay: standard microplate test in BHI Agar (MIC), Ps. aeruginosa UC 95; type: cell-based; conditions: Pseudomonas aeruginosa, UC95, 20 h, Ps. aeruginosa UC 95; retest table, group (7β), (14β), neamine control; read-out: Minimum Inhibitory Concentration
Protocol: as §2, §3

D. pneumoniae UC 41 = assay: standard microplate test in BHI Agar (MIC), D. pneumoniae UC 41; type: cell-based; conditions: Streptococcus pneumoniae, UC41, 20 h, D. pneumoniae UC 41; retest table, group (7β), (14β), neamine control; read-out: Minimum Inhibitory Concentration
Protocol: as §2, §3

P. mirabilis A-63 = assay: standard microplate test in BHI Agar (MIC), P. mirabilis A-63; type: cell-based; conditions: Proteus mirabilis, A63, 20 h; P. mirabilis A-63; retest table, group (7β), (14β), neamine control; read-out: Minimum Inhibitory Concentration
Protocol: as §2, §3

P. morgani UC 3186 = assay: standard microplate test in BHI Agar (MIC), P. morgani UC 3186; type: cell-based; conditions: 20 h; P. morgani UC 3186; retest table, group (7β), (14β), neamine control; read-out: Minimum Inhibitory Concentration
Protocol: as §2, §3

P. rettgeri UC 339 = assay: standard microplate test in BHI Agar (MIC), P. rettgeri UC 339; type: cell-based; conditions: Providencia rettgeri, UC339, 20 h; P. rettgeri UC 339; retest table, group (7β), (14β), neamine control; read-out: Minimum Inhibitory Concentration
Protocol: as §2, §3

S. marcescens UC 131 = assay: standard microplate test in BHI Agar (MIC), S. marcescens UC 131; type: cell-based; conditions: Serratia marcescens, UC131, 20 h; S. marcescens UC 131; retest table, group (7β), (14β), neamine control; read-out: Minimum Inhibitory Concentration
Protocol: as §2, §3

S. flexneri UC 143 = assay: standard microplate test in BHI Agar (MIC), S. flexneri UC 143; type: cell-based; conditions: Shigella flexneri, UC143, 20 h, retest table, group (7β), (14β), neamine control, read-out: Minimum Inhibitory Concentration
Protocol: as §2, §3

S. typhi TG-3 = assay: standard microplate test in BHI Agar (MIC), S. typhi TG-3; type: cell-based; conditions: Salmonella enterica, 20 h, read-out: Minimum Inhibitory Concentration
Protocol: as §2, §3

B. cereus UC 3145 = assay: agar diffusion (standard agar disc plate) assay, B. cereus UC 3145; type: cell-based, Bacillus cereus; set-up: unit: mm
Protocol: as §1
(§4) Compound (14β) was also tested against a series of bacteria on a standard agar disc plate assay, as described above.

B. subtilis UC 564 = assay: agar diffusion (standard agar disc plate) assay, B. subtilis UC 564; type: cell-based, Bacillus subtilis; set-up: unit: mm
Protocol: as §1, §4

S. aureus UC 76 [4] = assay: agar diffusion (standard agar disc plate) assay, S. aureus UC 76; type: cell-based, Staphylococcus aureus; set-up: unit not given here
Protocol: as §1, §4

P. vulgaris UC 93 [5] = assay: agar diffusion (standard agar disc plate) assay, p. vulgaris UC 93; type: cell-based; set-up: unit: mm
Protocol: as §1, §4

Ps. aeruginosa UC 95 [6] = assay: agar diffusion (standard agar disc plate) assay, Ps. aeruginosa UC 95; type: cell-based
Protocol: as §1, §4

E. coli UC 51 = assay: agar diffusion (standard agar disc plate) assay, E. coli UC 51; type: cell-based, Escherichia coli; set-up: unit not given here
Protocol: as §1, §4

S. lutea UC 130 = assay: agar diffusion (standard agar disc plate) assay, S. lutea UC 130; type: cell-based; set-up: unit: mm
Protocol: as §1, §4

K. pneumoniae UC 57 = assay: agar diffusion (standard agar disc plate) assay, K. pneumoniae UC 57; type: cell-based; set-up: unit: mm
Protocol: as §1, §4

## NC[C@H]1O[C@H](O[C@H]2[C@H](O)[C@@H](O)[C@H](N)C[C@@H]2N)[C@H](N)[C@@H](O[C@@H]2O[C@H](CO)[C@@H](O)[C@H]2O)[C@@H]1O [Compound (14β), 3'-O-(β-D-Ribofuranosyl)neamine]
B. cereus
  active against Bacillus cereus: active
B. subtilis
  active against Bacillus subtilis: active
S. aureus UC 76 [1]; Staphylococcus aureus, UC76, 20 h, S. aureus UC 76, retest table, group (7β), (14β), neamine control, read-out: Minimum Inhibitory Concentration
  MIC: 1000 µg/mL (≈ 2200 µM)
S. aureus UC 76 [1]; conclusion in words from the above results
  active against Staphylococcus aureus: active
S. hemolyticus UC 152
  MIC: 1000 µg/mL (≈ 2200 µM)
St. faecalis UC 694
  MIC: 1000 µg/mL (≈ 2200 µM)
E. coli UC 45
  MIC: 1000 µg/mL (≈ 2200 µM)
P. vulgaris UC 93 [2]
  MIC: 1000 µg/mL (≈ 2200 µM)
K. pneumoniae UC 58
  MIC: 500 µg/mL (≈ 1100 µM)
Ps. aeruginosa UC 95 [3]
  MIC: 1000 µg/mL (≈ 2200 µM)
D. pneumoniae UC 41
  MIC: 1000 µg/mL (≈ 2200 µM)
P. mirabilis A-63
  MIC: 1000 µg/mL (≈ 2200 µM)
P. morgani UC 3186
  MIC: 1000 µg/mL (≈ 2200 µM)
P. rettgeri UC 339
  MIC: 1000 µg/mL (≈ 2200 µM)
S. marcescens UC 131
  MIC: 1000 µg/mL (≈ 2200 µM)
S. flexneri UC 143
  MIC: 1000 µg/mL (≈ 2200 µM)
S. typhi TG-3
  MIC: 1000 µg/mL (≈ 2200 µM)
B. cereus UC 3145; Full Strength
  Agar Diffusion Assay: 25.5
B. cereus UC 3145; dilution 1 : 2
  Agar Diffusion Assay: 24
B. cereus UC 3145; dilution 1 : 4
  Agar Diffusion Assay: 21
B. cereus UC 3145; dilution 1 : 8
  Agar Diffusion Assay: 18
B. subtilis UC 564; Full Strength
  Agar Diffusion Assay: 37
B. subtilis UC 564; dilution 1 : 2
  Agar Diffusion Assay: 35.5
B. subtilis UC 564; dilution 1 : 4
  Agar Diffusion Assay: 33
B. subtilis UC 564; dilution 1 : 8
  Agar Diffusion Assay: 30.5
S. aureus UC 76 [4]; Full Strength
  Agar Diffusion Assay: 25
S. aureus UC 76 [4]; dilution 1 : 2
  Agar Diffusion Assay: 23
S. aureus UC 76 [4]; dilution 1 : 4
  Agar Diffusion Assay: 21
S. aureus UC 76 [4]; dilution 1 : 8
  Agar Diffusion Assay: 17.5
P. vulgaris UC 93 [5]; Full Strength
  Agar Diffusion Assay: 26
P. vulgaris UC 93 [5]; dilution 1 : 2
  Agar Diffusion Assay: 22
P. vulgaris UC 93 [5]; dilution 1 : 4
  Agar Diffusion Assay: 19.5
P. vulgaris UC 93 [5]; dilution 1 : 8
  Agar Diffusion Assay: 16
Ps. aeruginosa UC 95 [6]; Full Strength
  Agar Diffusion Assay: 20
Ps. aeruginosa UC 95 [6]; dilution 1 : 2
  Agar Diffusion Assay: 17
Ps. aeruginosa UC 95 [6]; dilution 1 : 4
  Agar Diffusion Assay: 14
E. coli UC 51; Full Strength
  Agar Diffusion Assay: 27
E. coli UC 51; dilution 1 : 2
  Agar Diffusion Assay: 24.5
E. coli UC 51; dilution 1 : 4
  Agar Diffusion Assay: 22
E. coli UC 51; dilution 1 : 8
  Agar Diffusion Assay: 18
S. lutea UC 130; Full strength
  Agar Diffusion Assay: 25
S. lutea UC 130; dilution 1 : 2
  Agar Diffusion Assay: 22.5
S. lutea UC 130; dilution 1 : 4
  Agar Diffusion Assay: 19
S. lutea UC 130; dilution 1 : 8
  Agar Diffusion Assay: 15
K. pneumoniae UC 57; Full strength
  Agar Diffusion Assay: 31
K. pneumoniae UC 57; dilution 1 : 2
  Agar Diffusion Assay: 29
K. pneumoniae UC 57; dilution 1 : 4
  Agar Diffusion Assay: 27
K. pneumoniae UC 57; dilution 1 : 8
  Agar Diffusion Assay: 23
